Assay results as given in patent US20250108088A1, “REGENERATIVE PEPTIDES AND METHODS FOR USE THEREOF” (priority 2023, published 2025).

Test system: Normal human dermal fibroblasts (HNDF)
Assay: Myofibroblast transition assay (MFT), aSMA immunofluorescence
Format: cell-based
Settings: 100 ng/ml peptide; N = 3; TGF-Beta induced HNDF; control of no peptide
From the text: The myofibroblast transition (MFT) assay determines the effect of the peptide on inhibiting the transition of fibroblasts to myofibroblasts. The extracellular matrix produced by myofibroblasts may be produced in excess and may not be remodeled during tissue healing, leaving behind the fibrous connective tissue that forms a scar. Thus, the ability to regulate the degree of MFT may enable control of scarring. To determine if the peptides provided herein affect MFT, the following assay was performed.
Normal human dermal fibroblasts (HNDF) were cultured in high glucose Dulbecco's modified eagle medium (DMEM) supplemented with 10% fetal bovine serum (FBS) and 5 ml of 10,000 units of penicillin/streptomycin. Cells were cultured on 10 cm plates with media changes every 2 days. Cells were passaged in 0.25% Trypsin/EDTA after achieving 80% confluency.
To induce myofibroblast transition (MFT), normal human dermal fibroblasts (HNDFs) were split from 1-10 cm plates to 5-96 well plates. Cells were then allowed to grow the next day. The following day, cells were serum starved (1% FBS in DMEM) for 4 hours prior to adding 20 ng/ml of TGF-Beta to all wells of the plate. 1000 μM of Vactosertib (TEW-7197/EW-7197) was added to serve as a positive control and different concentrations of peptides were added to serve as the test articles. The cells were then exposed to the compounds for 5 more days before fixation.
The cells were fixed in paraformaldehyde (PFA) for 10-15 minutes, then washed 2× in PBS. Cells were blocked in 4% BSA for 30 minutes at 23° C. Cells were stained with the primary alpha-smooth muscle actin (aSMA) antibody (1:100) for 1 hour at 23° C. or left out at 4° C. overnight. Cells were rinsed 2× with BSA and then the secondary antibody mix was added: Alexa 488 (1:500) and DAPI (1:1000) for 30 min at 23° C. or 1 hr at 4° C. The plates were covered during staining, then rinsed 2× in BSA and stored in PBS.
Plates were imaged using the Celigo Imaging Cytometer by Nexcelcom. The ratio of fluorescent expression of alpha-smooth muscle actin (aSMA) and DAPI were quantified to determine the amount of aSMA/cell.
The change (normalized to the control) in MFT for each concentration is shown along with the p value for all experiments relative to the control of no peptide.

Question: Which “Myofibroblast transition (MFT), aSMA/cell, % change relative to control” value does the source give for DPCPLCGLRKRLRKFRNK [MBb12] here?
Answer: −0.4465%

Question: For EEIDA [MBb1.2], which “Myofibroblast transition (MFT), aSMA/cell, % change relative to control” value is on record?
Answer: −0.3496%

Question: How did the “Myofibroblast transition (MFT), aSMA/cell, % change relative to control” value turn out when EELTRGLRKRLRKFRNK [MBb23] was run?
Answer: −0.1203%

Question: EKKNPGLRKRLRKFRNK [MBb73] was tested. Which “Myofibroblast transition (MFT), aSMA/cell, % change relative to control” value did it give?
Answer: −0.07558%

Question: With ENIKKGLRKRLRKFRNK [MBb37] as the substance, how does the “Myofibroblast transition (MFT), aSMA/cell, % change relative to control” value read?
Answer: −0.1426%

Question: How did the “Myofibroblast transition (MFT), aSMA/cell, % change relative to control” value turn out when EYENPGLRKRLRKFRNK [MBb10] was run?
Answer: −0.2694%

Question: Which “Myofibroblast transition (MFT), aSMA/cell, % change relative to control” value does the source give for FFLRIHPDGRVDGVR [MBWhit1] here?
Answer: −0.3667%

Question: GDIR VR (GDIRVR) [MBWhit33] was tested. Which “Myofibroblast transition (MFT), aSMA/cell, % change relative to control” value did it give?
Answer: −0.3175%

Question: For HIWA VVPCIR (HIWAVVPCIR) [MBBey3], which “Myofibroblast transition (MFT), aSMA/cell, % change relative to control” value is on record?
Answer: −0.1442%

Question: IAHELGHNLGMSH [MBb25] was tested. Which “Myofibroblast transition (MFT), aSMA/cell, % change relative to control” value did it give?
Answer: −0.1769%

Question: IGPGLP [MBb76] was tested. Which “Myofibroblast transition (MFT), aSMA/cell, % change relative to control” value did it give?
Answer: −0.03421%

Question: How did the “Myofibroblast transition (MFT), aSMA/cell, % change relative to control” value turn out when KTHPGG [MBWhit38] was run?
Answer: −0.3798%

Question: With MDQGYPKETVDDFPG [MBBey12] as the substance, how does the “Myofibroblast transition (MFT), aSMA/cell, % change relative to control” value read?
Answer: −0.6665%

Question: With NTCHQCGLRKRLRKFRNK [MBb35] as the substance, how does the “Myofibroblast transition (MFT), aSMA/cell, % change relative to control” value read?
Answer: −0.3719%

Question: How did the “Myofibroblast transition (MFT), aSMA/cell, % change relative to control” value turn out when PPSILGLRKRLRKFRNK [MBb44] was run?
Answer: −0.1751%

Question: With RVIWA [MBb4.2] as the substance, how does the “Myofibroblast transition (MFT), aSMA/cell, % change relative to control” value read?
Answer: −0.2113%

Same assay, conditions: 1000 ng/ml peptide; N = 3; TGF-Beta induced HNDF; control of no peptide

Question: For GDIR VR (GDIRVR) [MBWhit33], which “Myofibroblast transition (MFT), aSMA/cell, % change relative to control” value is on record?
Answer: −0.3527%

Question: Which “Myofibroblast transition (MFT), aSMA/cell, % change relative to control” value does the source give for IGPGLP [MBb76] here?
Answer: −0.1847%

Question: ITCPHCQ [MBa9] was tested. Which “Myofibroblast transition (MFT), aSMA/cell, % change relative to control” value did it give?
Answer: −0.3194%

Question: LKEKKPAKEK [PC-1] was tested. Which “Myofibroblast transition (MFT), aSMA/cell, % change relative to control” value did it give?
Answer: −0.4788%

Question: LPRDER [MBb3.2] was tested. Which “Myofibroblast transition (MFT), aSMA/cell, % change relative to control” value did it give?
Answer: −0.3874%

Question: For MDQGYPKETVDDFPG [MBBey12], which “Myofibroblast transition (MFT), aSMA/cell, % change relative to control” value is on record?
Answer: −0.4491%

Question: NTCHQCGLRKRLRKFRNK [MBb35] was tested. Which “Myofibroblast transition (MFT), aSMA/cell, % change relative to control” value did it give?
Answer: −0.4001%

Question: Which “Myofibroblast transition (MFT), aSMA/cell, % change relative to control” value does the source give for RVIWA [MBb4.2] here?
Answer: −0.2416%

Question: With VLFEDVIAEP [MBBey 37] as the substance, how does the “Myofibroblast transition (MFT), aSMA/cell, % change relative to control” value read?
Answer: −0.2873%

Same assay, conditions: most effective significant concentration of 10, 100, 1000 ng/ml; N = 3

Question: For DPCPLCGLRKRLRKFRNK [MBb12], which “MFT, Representative value from experiments (% change relative to control)” value (“MFT … (% change relative to control)” for short) is on record?
Answer: −0.4465 p = (0.037) %

Question: For EEIDA [MBb1.2], which “MFT … (% change relative to control)” value is on record?
Answer: −0.3496 p = (0.006) %

Question: With EELTRGLRKRLRKFRNK [MBb23] as the substance, how does the “MFT … (% change relative to control)” value read?
Answer: −0.1203 p = (0.016) %

Question: How did the “MFT … (% change relative to control)” value turn out when EKKNPGLRKRLRKFRNK [MBb73] was run?
Answer: −0.07558 p = (0.04) %

Question: With ENIKKGLRKRLRKFRNK [MBb37] as the substance, how does the “MFT … (% change relative to control)” value read?
Answer: −0.1426 p = (0.032) %

Question: With EYENPGLRKRLRKFRNK [MBb10] as the substance, how does the “MFT … (% change relative to control)” value read?
Answer: −0.2694 p = (0.023) %

Question: For FFLRIHPDGRVDGVR [MBWhit1], which “MFT … (% change relative to control)” value is on record?
Answer: −0.3667 p = (0.038) %

Question: Which “MFT … (% change relative to control)” value does the source give for GDIR VR (GDIRVR) [MBWhit33] here?
Answer: −0.3527 p = (0.032) %

Question: How did the “MFT … (% change relative to control)” value turn out when HIWA VVPCIR (HIWAVVPCIR) [MBBey3] was run?
Answer: −0.1442 p = (0.037) %

Question: How did the “MFT … (% change relative to control)” value turn out when IAHELGHNLGMSH [MBb25] was run?
Answer: −0.1769 p = (0.008) %

Question: IGPGLP [MBb76] was tested. Which “MFT … (% change relative to control)” value did it give?
Answer: −0.1847 p = (0.009) %

Question: With ITCPHCQ [MBa9] as the substance, how does the “MFT … (% change relative to control)” value read?
Answer: −0.3194 p = (0.02) %

Question: For KTHPGG [MBWhit38], which “MFT … (% change relative to control)” value is on record?
Answer: −0.3798 p = (0.006) %

Question: Which “MFT … (% change relative to control)” value does the source give for LKEKKPAKEK [PC-1] here?
Answer: −0.4788 p = (0.038) %

Question: Which “MFT … (% change relative to control)” value does the source give for LPRDER [MBb3.2] here?
Answer: −0.3874 p = (0.003) %

Question: With MDQGYPKETVDDFPG [MBBey12] as the substance, how does the “MFT … (% change relative to control)” value read?
Answer: −0.6665 p = (0.007) %

Question: How did the “MFT … (% change relative to control)” value turn out when NTCHQCGLRKRLRKFRNK [MBb35] was run?
Answer: −0.4001 p = (0.016) %

Question: How did the “MFT … (% change relative to control)” value turn out when PPSILGLRKRLRKFRNK [MBb44] was run?
Answer: −0.1751 p = (0.005) %

Question: RVIWA [MBb4.2] was tested. Which “MFT … (% change relative to control)” value did it give?
Answer: −0.2416 p = (0.003) %

Question: Which “MFT … (% change relative to control)” value does the source give for VLFEDVIAEP [MBBey 37] here?
Answer: −0.2873 p = (0.018) %
